Earlier results on one compound are cited in patent publication US11147307B2, “Flavor capsules for smoking articles” (PHILIP MORRIS PRODUCTS S.A., priority 2015, dated 2021).

Consider `OC[C@@H](O)[C@@H](O[C@H]1O[C@H](CO)[C@@H](O)[C@H](O)[C@H]1O)[C@H](O)[C@@H](O)CO` [maltitol], for which the solubility in water entry was “about 200 g/100 ml”.
